Measurements: publication PMC4490394 (Scientific Reports, 2015)
Where a chain is given by its changes, count along the chain named. Where “and” joins values, the source holds several entries; their conditions need not be identical. Identical values can stand only once.

Columns and labels:
[1] = system: VCaP cells; test: VCaP proliferation assay (WST-1); type: cell-based; conditions: Homo sapiens, 96 h, 0.1 nM mibolerone, steroid-depleted medium, 4 days, WST-1, read-out: IC50, androgen-induced VCaP cell proliferation
Procedure: VCaP cells were treated with a submaximal concentration of mibolerone (0.1 nM) and increasing concentrations of test compounds in steroid-free assay medium supplemented with 4 mM GlutaMAX. After a 4-day incubation with the compounds, cell viability was measured using a WST-1 cell proliferation assay (Roche), according to manufacturer’s instructions.

[2] = system: H1581 lung cancer cells; test: Viability of AR-negative cells (WST-1); type: cell-based, human; conditions: increasing concentrations, 4 days
[3] = system: subcutaneous VCaP tumors; test: Castration-resistant VCaP xenograft, tumor volume; type: in vivo, castrated nude mice; conditions: 37 days
[4] = Pharmacokinetic parameters in mice after 7 days oral dosing; type: in vivo; conditions: male, BALB/c or Balb/cOlaHsd nude, mouse, plasma, 50 mg/kg bid oral
Procedure: Control mice received vehicle. […] Brain samples (without olfactory bulbs and medulla oblongata) from each group and time point were pooled and homogenized before the analysis. […] Plasma and brain concentration vs. time were evaluated by noncompartmental analysis using WinNonlin® Professional v. 5.2 software (Pharsight Corporation). Brain/plasma ratios were calculated based on AUC0–24 values for plasma and brain.

[5] = Body weight of mice bearing subcutaneous VCaP xenograft tumors; type: in vivo, castrated nude mice; conditions: for Change in body weight (%) d 3 / Change in body weight (%) d 9 / Change in body weight (%) d 16 / Change in body weight (%) d 23 / Change in body weight (%) d 30 / Change in body weight (%) d 37: individual animals, vs BW before treatment, 50 mg/kg
Procedure: BALB/c nude male mice (7 weeks old from Charles River, Germany) were subcutaneously injected with 2 million VCaP cells in 100 μL of RPMI-1640 medium and Matrigel (BD) (1:1). Tumor growth was monitored twice weekly by caliper measurements. The volume of the tumor was calculated according to the formula W^2 × L/2 (mm^3), where W is the shorter and L the longer diameter of the tumor. When the average tumor volume reached ~200 mm^3, mice were castrated or SHAM-operated under Avertin anesthesia. […] For all in vivo studies, Macrocol® (Merck) + propylene glycol +5% glucose (50:30:20, v/v/v) was used as a vehicle.

[6] = target: T1, AR(F876L) (Homo sapiens, UniProt P10275, F877L)
T1 sequence (P10275 1-920 F877L): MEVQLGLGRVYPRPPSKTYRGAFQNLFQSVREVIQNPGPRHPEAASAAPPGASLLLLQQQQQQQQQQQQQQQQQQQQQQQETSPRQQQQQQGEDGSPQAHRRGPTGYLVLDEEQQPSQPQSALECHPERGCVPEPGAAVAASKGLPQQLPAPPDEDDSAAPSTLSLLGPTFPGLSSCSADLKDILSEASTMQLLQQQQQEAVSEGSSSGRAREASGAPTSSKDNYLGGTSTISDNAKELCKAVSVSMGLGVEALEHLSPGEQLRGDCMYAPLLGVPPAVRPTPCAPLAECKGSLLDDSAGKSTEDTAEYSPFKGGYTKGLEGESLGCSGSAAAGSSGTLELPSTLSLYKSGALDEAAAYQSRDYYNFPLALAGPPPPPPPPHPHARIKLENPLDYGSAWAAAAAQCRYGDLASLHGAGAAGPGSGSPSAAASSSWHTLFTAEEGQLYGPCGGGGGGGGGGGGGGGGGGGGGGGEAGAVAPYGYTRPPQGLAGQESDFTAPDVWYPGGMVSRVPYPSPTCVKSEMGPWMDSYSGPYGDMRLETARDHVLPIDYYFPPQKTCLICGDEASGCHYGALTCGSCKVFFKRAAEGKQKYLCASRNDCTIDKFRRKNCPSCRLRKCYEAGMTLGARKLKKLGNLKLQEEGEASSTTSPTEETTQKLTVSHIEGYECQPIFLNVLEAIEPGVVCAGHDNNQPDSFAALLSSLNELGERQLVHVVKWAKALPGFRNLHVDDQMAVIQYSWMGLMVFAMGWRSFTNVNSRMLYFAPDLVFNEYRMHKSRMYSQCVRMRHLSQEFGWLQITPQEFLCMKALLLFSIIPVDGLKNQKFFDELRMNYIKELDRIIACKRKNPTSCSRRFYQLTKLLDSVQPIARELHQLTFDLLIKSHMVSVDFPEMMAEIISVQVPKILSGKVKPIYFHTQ
Procedure: (§1) For one well in a 96-well plate, 190 ng of reporter construct DNA and 10 ng of receptor construct DNA were diluted in Opti-MEM® (Gibco). […] Luciferase activity was measured as described above.

[7] = target: T2, AR(T877A) (Homo sapiens, UniProt P10275, T878A)
T2 sequence (P10275 1-920 T878A): T1 sequence (P10275 1-920 F877L) with L877F, T878A
Procedure: as §1

[8] = system: PSA; conditions: chemotherapy-naïve CRPC patients, 700 mg twice daily, ARADES study ref 28; cited from earlier work
[9] = system: testosterone; conditions: ODM-201-treated patients ref 28; cited from earlier work

CC(O)c1cc(C(=O)N[C@@H](C)Cn2ccc(-c3ccc(C#N)c(Cl)c3)n2)[nH]n1 (some centres unmarked) [ODM-201]
IC50 [1]: 230 nM
effect on viability of H1581 cells [2]: no effect
antitumor activity (tumor volume) ([3]; 50 mg/kg oral once daily, vs castrated untreated mice): significant antitumor activity
antitumor activity (tumor volume) ([3]; 50 mg/kg oral twice daily, p < 0.001 vs castrated untreated mice, p = 0.0245 vs enzalutamide): significant antitumor activity
AUC ([4]; read-out: AUC24): 175 µg·h/mL
half-life ([4]; read-out: T 1/2 (plasma half-life) (converted)): 96 min
body weights during the treatment ([5]; 50 mg/kg twice daily oral, 37 days): did not decrease significantly
Change in body weight (%) d 3 ([5]; ODM-201 50 mg/kg bid oral): -0.4% and 0.0% and -2.8% and -1.9% and -1.3% and -4.9% and -2.9%
Change in body weight (%) d 9 ([5]; ODM-201 50 mg/kg bid oral): -2.1% and -2.5% and -9.8% and -0.9% and -0.5% and -4.5% and -6.9% and -1.9%
Change in body weight (%) d 16 ([5]; ODM-201 50 mg/kg bid oral): 1.7% and -4.9% and 5.6% and 3.3% and 0.4% and -4.5% and -1.0%
Change in body weight (%) d 23 ([5]; ODM-201 50 mg/kg bid oral): -1.7% and -6.5% and -2.8% and 0.5% and -5.4% and -11.4% and -7.2%
Change in body weight (%) d 30 ([5]; ODM-201 50 mg/kg bid oral): -1.3% and 0.8% and -6.1% and -3.8% and 3.8% and -3.6% and -1.6% and -3.4%
Change in body weight (%) d 37 ([5]; ODM-201 50 mg/kg bid oral): 0.4% and -6.1% and -0.5% and -6.7% and -1.2% and -6.3%
Change in body weight (%) d 3 ([5]; ODM-201 50 mg/kg qd oral): -2.5% (2×) and -1.3% and -2.0% and -2.9% and -0.5% and -2.3% and -3.8% and -4.7% and 9.0%
Change in body weight (%) d 9 ([5]; ODM-201 50 mg/kg qd oral): 2.2% and -1.7% and 3.5% and 6.9% and -4.9% and 3.9% and 1.8% and -0.8% and -7.7% and 7.5%
Change in body weight (%) d 16 ([5]; ODM-201 50 mg/kg qd oral): -1.3% and 3.0% and 14.7% and 2.5% and -5.7% and 6.9% and 0.5% and 3.8% and 1.3% and 9.5%
Change in body weight (%) d 23 ([5]; ODM-201 50 mg/kg qd oral): 6.0% and -8.2% and 4.4% and -4.9% and -1.3% and -0.5% and 0.9% and -0.4%
Change in body weight (%) d 30 ([5]; ODM-201 50 mg/kg qd oral): 1.5% and -3.9% and 2.5% and 8.3% and -4.1% and 2.0% and 1.8% and 0.0% and -0.4%
Change in body weight (%) d 37 ([5]; ODM-201 50 mg/kg qd oral): 5.0% and -6.5% and 1.5% and 6.9% and -7.8% and 2.5% and 1.8% and -0.8% and -4.6%
functional activity (agonist/antagonist) on AR(F876L) [6]: full antagonists
functional activity (agonist/antagonist) on AR(T877A) [7]: full antagonists
PSA response (50% or greater decrease), share of patients [8]: 86%
serum testosterone levels in treated patients [9]: maintained at castrate levels
